These results are taken from PMC7901654, “Bioisosteric Discovery of NPA101.3, a Second-Generation RET/VEGFR2 Inhibitor Optimized for Single-Agent Polypharmacology” (Journal of Medicinal Chemistry, 2020).

Test [1] concerns RET-driven Ba/F3 cells (RET/C634R, RET/M918T, CCDC6-RET). In words: Cell growth curves, RET-driven Ba/F3 cells taken together. It is filed as cell-based, murine. The following applies: Mus musculus, BaF3; range over RET-transfected Ba/F3 lines; read-out: IC50, RET-driven Ba/F3 cell proliferation. The source says: The murine pro-B cell line Ba/F3 requires IL-3 (interleukin 3) for proliferation and survival; this dependency is bypassed by active tyrosine kinases. Therefore, the Ba/F3 cell line is a standard cell culture model for determining the activity and drug-mediated inhibition of tyrosine kinases.[42] Accordingly, stable transfection of RET/C634R, RET/M918T, and CCDC6-RET oncoproteins promotes IL-3-independent growth (Figure 5).
Nthy-ory-3-1 (10000 per well), TPC-1 (10000 per well), MZ-CRC-1 (100000 per well), TT (200000 per well), Lc-2/ad (100000 per well), BCPAP (10000 per well), 8505-C (10000 per well), PC-9 (10000 per well), A549 (10000 per well), CALU-1 (10000 per well), NIH3T3 RET/C634Y (10000 per well), and NIH3T3 HRAS/G12V (10000 per well) were seeded in six-well tissue culture plates. Cells were kept in 2% (TPC-1), 5% (Nthy-ori-3-1), or 10% (BCPAP, 8505-C, CALU-1, A549, PC-9, TT, MZ-CRC-1, and Lc-2/ad) fetal calf serum or in 2% (NIH3T3 RET/C634Y and HRAS/G12V) calf serum. Ba/F3 cells (200000 per well in 2 mL) were seeded in six-well tissue culture plates and kept in 10% fetal calf serum. […] Cells were counted every day (Ba/F3), every 2 days (fibroblasts), or every 2–3 days (human cell lines). […] IC50 doses were calculated through a curve fitting analysis from last day of growth curves using the PRISM software program (Graphpad Software Inc.).

The next test relates to Lc-2/ad. The experiment in a line: Cell growth curves, human cells. The test is classed as cell-based. The following applies: LADC, CCDC6-RET, read-out: IC50 (95% CI), growth inhibition. How it is done: (§1) The IC50 dose for all human RET-negative cells was >100.0 nM, confirming compound selectivity (Figure S8 and Table S4).
(§2) Nthy-ory-3-1 (10000 per well), TPC-1 (10000 per well), MZ-CRC-1 (100000 per well), TT (200000 per well), Lc-2/ad (100000 per well), BCPAP (10000 per well), 8505-C (10000 per well), PC-9 (10000 per well), A549 (10000 per well), CALU-1 (10000 per well), NIH3T3 RET/C634Y (10000 per well), and NIH3T3 HRAS/G12V (10000 per well) were seeded in six-well tissue culture plates. Cells were kept in 2% (TPC-1), 5% (Nthy-ori-3-1), or 10% (BCPAP, 8505-C, CALU-1, A549, PC-9, TT, MZ-CRC-1, and Lc-2/ad) fetal calf serum or in 2% (NIH3T3 RET/C634Y and HRAS/G12V) calf serum. Ba/F3 cells (200000 per well in 2 mL) were seeded in six-well tissue culture plates and kept in 10% fetal calf serum. The day after plating, different concentrations of the drug or vehicle were added to the medium and changed every 2–3 days. Cells were counted every day (Ba/F3), every 2 days (fibroblasts), or every 2–3 days (human cell lines). To compare cell growth, we performed an unpaired Student’s t test using the Instat software program (Graphpad Software Inc.). All P values were two-sided, and differences were considered to be statistically significant at P < 0.02. IC50 doses were calculated through a curve fitting analysis from last day of growth curves using the PRISM software program (Graphpad Software Inc.).
(§3) Supplementary Table S4: NPA101.3 growth inhibitory effect on human cells.
(§4) *MTC (medullary thyoroid carcinoma); PTC (papillary thyroid carcinoma); ATC
(§5) (anaplastic thyroid carcinoma); LADC (lung adenocarcinoma)

The next test relates to MZ-CRC-1. The experiment in a line: Cell growth curves, human cells. It is filed as cell-based. The conditions noted are these: MZ-CRC-1, MTC, RET M918T, read-out: IC50 (95% CI), growth inhibition. How it is done: as §1, §2, §3, §4, §5
The next test concerns TT. The experiment in a line: Cell growth curves, human cells. The following applies: MTC, RET C634W, read-out: IC50 (95% CI), growth inhibition. The test is classed as cell-based. The procedure: as §1, §2, §3, §4, §5
In test [2] the test system is NIH3T3 HRAS/G12V cells. In words: Cell growth curves, transformed NIH3T3. The test is classed as cell-based. The following applies: up to 100.0 nM. How it is done:
Nthy-ory-3-1 (10000 per well), TPC-1 (10000 per well), MZ-CRC-1 (100000 per well), TT (200000 per well), Lc-2/ad (100000 per well), BCPAP (10000 per well), 8505-C (10000 per well), PC-9 (10000 per well), A549 (10000 per well), CALU-1 (10000 per well), NIH3T3 RET/C634Y (10000 per well), and NIH3T3 HRAS/G12V (10000 per well) were seeded in six-well tissue culture plates. Cells were kept in 2% (TPC-1), 5% (Nthy-ori-3-1), or 10% (BCPAP, 8505-C, CALU-1, A549, PC-9, TT, MZ-CRC-1, and Lc-2/ad) fetal calf serum or in 2% (NIH3T3 RET/C634Y and HRAS/G12V) calf serum. Ba/F3 cells (200000 per well in 2 mL) were seeded in six-well tissue culture plates and kept in 10% fetal calf serum. The day after plating, different concentrations of the drug or vehicle were added to the medium and changed every 2–3 days. Cells were counted every day (Ba/F3), every 2 days (fibroblasts), or every 2–3 days (human cell lines). […] IC50 doses were calculated through a curve fitting analysis from last day of growth curves using the PRISM software program (Graphpad Software Inc.).
Supplementary Figure S9: NPA101.3-mediated inhibition of proliferation of RET-transformed NIH3T3 cells […] Serum-starved NIH3T3 cells exogenously expressing the RET/C634Y or HRAS/G12V oncogenes were incubated with vehicle (NT: not treated) or the indicated concentrations of the compound and counted at the indicated time points. […]

Test [3] relates to NIH3T3 HRAS/G12V cells. In words: Phosphorylation and signalling Western blot in NIH3T3 HRAS/G12V cells. It is filed as cell-based. The conditions noted are these: up to a dose of 100.0 nM. How it is done: (§6) Protein lysates were prepared according to standard procedures. Briefly, cells were lysed in a buffer containing 50 mM N-2-hydroxyethylpiperazine-N′-2-ethanesulfonic acid (HEPES; pH 7.5), 1% (v/v) Triton X-100, 150 mM NaCl, 5 mM EGTA, 50 mM NaF, 20 mM sodium pyrophosphate, 1 mM sodium vanadate, 2 mM phenylmethanesulfonyl fluoride (PMSF), and 1 μg/mL aprotinin. Lysates were clarified by centrifugation at 10000g for 15 min. […] Immune complexes were detected with the enhanced chemiluminescence kit (Amersham Pharmacia Biotech, Little Chalfont, U.K.). Anti-phospho-SHC (#Y317), which recognizes SHC protein when phosphorylated on Y317, was from Upstate Biotechnology Inc. (Lake Placid, NY). Anti-SHC (H-108) was from Santa Cruz Biotechnology (Santa Cruz, CA). Anti-MAPK (9101) and anti-phospho-MAPK (9102), specific for p42/44MAPK (ERK1/2) phosphorylated on Thr202/Tyr204, antibodies were from Cell Signaling Technologies (Danvers, MA). Anti-phospho-VEGFR2/KDR (2478), specific for VEGFR2/KDR phosphorylated on Tyr1175, and anti-VEGFR2/KDR (2479) were from Cell Signaling Technologies. Anti-phospho-p70S6K (9234), specific for p70S6K phosphorylated on Thr389, and anti-p70S6K (2708) were from Cell Signaling Technologies. […]
A general note: In western blotting, separated proteins are transferred to a membrane and probed.

Test [4] has as its system Nthy-ori-3.1, BCPAP, 8505-C, PC-9, A549, CALU-1. The experiment in a line: SHC/MAPK signalling in control cell lines lacking RET oncogenes. It is filed as cell-based, human. The following applies: 2 h treatment. The procedure: NPA101.3 inhibited RET autophosphorylation and signaling along the SHC/MAPK pathway in human cancer cell lines endogenously expressing RET oncogenic variants, including MTC cell lines, TT (RET/C634W) and MZ-CRC-1 (RET/M918T), and PTC cell line TPC-1 (CCDC6-RET); in the lung adenocarcinoma cell line Lc-2/ad (CCDC6-RET), only RET and SHC (but not MAPK) dephosphorylation was detectable (Figure S4).
as §6, with “MA).” for “MA). Anti-phospho-VEGFR2/KDR (2478), specific for VEGFR2/KDR phosphorylated on Tyr1175, and anti-VEGFR2/KDR (2479) were from Cell Signaling Technologies. Anti-phospho-p70S6K (9234), specific for p70S6K phosphorylated on Thr389, and anti-p70S6K (2708) were from Cell Signaling Technologies.”

For `CC(C)(C)c1cc(NC(=O)Cc2ccc(-n3cnc4cc(-c5ccc(S(C)(=O)=O)cc5)ccc43)cc2)no1` [NPA101.3], the IC50 is 1.6 to 3.1 nM in test [1], 3.6 nM with Lc-2/ad, 2.21 nM in the test with MZ-CRC-1 and 2.19 nM in the test on TT. Also, the “effect on proliferation of NIH3T3 HRAS/G12V cells” value with NIH3T3 HRAS/G12V cells [2] is “virtually no effect”. The effect on phosphorylation/signalling result in the test with NIH3T3 HRAS/G12V cells [3] is reported as “virtually no effect”. In test [4], the “effect on SHC/MAPK signaling” value is “Virtually no effect”.
